Measurements from patent US11925624B2, “Methods of administering anti-fibrotic therapy” (GENENTECH, INC., priority 2016, dated 2024).

How the values were obtained:
[1] = Serum creatinine (Scr) change from baseline, SAD study (Part A); type: in vivo, human; details: for Number of subjects with change in Scr <0.3 mg/dL from baseline / Number of subjects with change in Scr ≥0.3 mg/dL from baseline / Number of subjects with percent change in Scr <30% from baseline / Number of subjects with percent change in Scr ≥30% from baseline: SAD
Experimental: (§1) In addition to the measurement of various PK parameters in both parts of the study, the changes in the subjects' serum creatinine levels were also evaluated in this study. Tables 6A and 6B summarize the change in level and percent change in serum creatinine from averaged screening and pre-dosing values for the subjects in SAD study in each treatment group, as applicable. Tables 7A and 7B summarize the change in level and percent change in scrum creatinine from averaged screening and pre-dosing values for the subjects in MAD study. […] In Part B of the study, 2 subjects (275 mg BID) experienced clinically significant TEAEs of increased creatinine on day 5. The mean change in serum creatinine from a combined screening and pre-dose baseline in the MAD part of the study is illustrated in FIG. 1. In addition, the mean change in creatinine level from combined screening and pre-dose level in the MAD part of the study is illustrated in FIG. 2.

[2] = Serum creatinine (Scr) change from baseline, MAD study (Part B); type: in vivo, human; details: for Number of subjects with change in Scr <0.3 mg/dL from baseline / Number of subjects with change in Scr ≥0.3 mg/dL from baseline / Number of subjects with percent change in Scr <30% from baseline / Number of subjects with percent change in Scr ≥30% from baseline: MAD
Experimental: as §1

- Exposures with increases over the upper limit of normal (ULN) in serum creatinine ([1]; Part A (SAD), exposures of doses of 200 mg or more): about 21%
- Number of subjects with change in Scr <0.3 mg/dL from baseline ([1]; 25 mg): 6
- Number of subjects with change in Scr ≥0.3 mg/dL from baseline ([1]; 25 mg): 0
- Number of subjects with percent change in Scr <30% from baseline ([1]; 25 mg): 6
- Number of subjects with percent change in Scr ≥30% from baseline ([1]; 25 mg): 0
- Number of subjects with change in Scr <0.3 mg/dL from baseline ([1]; 75 mg): 6
- Number of subjects with change in Scr ≥0.3 mg/dL from baseline ([1]; 75 mg): 0
- Number of subjects with percent change in Scr <30% from baseline ([1]; 75 mg): 6
- Number of subjects with percent change in Scr ≥30% from baseline ([1]; 75 mg): 0
- Number of subjects with change in Scr <0.3 mg/dL from baseline ([1]; 200 mg): 6
- Number of subjects with change in Scr ≥0.3 mg/dL from baseline ([1]; 200 mg): 0
- Number of subjects with percent change in Scr <30% from baseline ([1]; 200 mg): 6
- Number of subjects with percent change in Scr ≥30% from baseline ([1]; 200 mg): 0
- Number of subjects with change in Scr <0.3 mg/dL from baseline ([1]; 400 mg Fasted): 10
- Number of subjects with change in Scr ≥0.3 mg/dL from baseline ([1]; 400 mg Fasted): 2
- Number of subjects with percent change in Scr <30% from baseline ([1]; 400 mg Fasted): 9
- Number of subjects with percent change in Scr ≥30% from baseline ([1]; 400 mg Fasted): 3
- Number of subjects with change in Scr <0.3 mg/dL from baseline ([1]; 800 mg Fasted): 5
- Number of subjects with change in Scr ≥0.3 mg/dL from baseline ([1]; 800 mg Fasted): 1
- Number of subjects with percent change in Scr <30% from baseline ([1]; 800 mg Fasted): 4
- Number of subjects with percent change in Scr ≥30% from baseline ([1]; 800 mg Fasted): 2
- Number of subjects with change in Scr <0.3 mg/dL from baseline ([1]; 1600 mg): 6
- Number of subjects with change in Scr ≥0.3 mg/dL from baseline ([1]; 1600 mg): 0
- Number of subjects with percent change in Scr <30% from baseline ([1]; 1600 mg): 6
- Number of subjects with percent change in Scr ≥30% from baseline ([1]; 1600 mg): 0
- Subjects with mean change from baseline ≥0.3 mg/dL in Scr ([2]; MAD study, all subjects): 25%
- Subjects with mean percent change from baseline ≥30% in Scr ([2]; MAD study, all subjects): 50%
- Number of subjects with change in Scr <0.3 mg/dL from baseline ([2]; 400 mg (200 mg BID)): 5
- Number of subjects with change in Scr ≥0.3 mg/dL from baseline ([2]; 400 mg (200 mg BID)): 1
- Number of subjects with percent change in Scr <30% from baseline ([2]; 400 mg (200 mg BID)): 1
- Number of subjects with percent change in Scr ≥30% from baseline ([2]; 400 mg (200 mg BID)): 5
- Number of subjects with change in Scr <0.3 mg/dL from baseline ([2]; 525 mg): 5
- Number of subjects with change in Scr ≥0.3 mg/dL from baseline ([2]; 525 mg): 1
- Number of subjects with percent change in Scr <30% from baseline ([2]; 525 mg): 3
- Number of subjects with percent change in Scr ≥30% from baseline ([2]; 525 mg): 3
- Number of subjects with change in Scr <0.3 mg/dL from baseline ([2]; 550 mg (275 mg BID)): 2
- Number of subjects with change in Scr ≥0.3 mg/dL from baseline ([2]; 550 mg (275 mg BID)): 4
- Number of subjects with percent change in Scr <30% from baseline ([2]; 550 mg (275 mg BID)): 2
- Number of subjects with percent change in Scr ≥30% from baseline ([2]; 550 mg (275 mg BID)): 4
- Subjects with increases over the upper limit of normal (ULN) in serum creatinine ([2]; Part B (MAD), across all dose levels): about 56%
Structure (SMILES): Cn1cc(-c2cn(-c3ccc(OC(F)(F)F)cc3)c(=O)c3ncn(C)c23)cn1 [Compound I]
- Subjects with clinically significant TEAEs of increased creatinine ([2]; Part B, 275 mg BID, day 5): 2 subjects
